Source: US10335608B2, “Photodynamic compounds and methods for activating them using ionizing radiation and/or other electromagnetic radiation for therapy and/or diagnostics” (THERALASE TECHNOLOGIES, INC., priority 2016, dated 2019)

Legend:
U87 cells = experiment: Presto Blue cell kill after light and/or X-ray PDT, U87 cells; type: cell-based, human; conditions: 20 μM
Procedure: The cells were incubated in complete DMEM media containing antibiotics and 10% FBS (resulting in 2.5 μM bovine Tf in the medium) and all the solutions were prepared in this media. The cells were loaded with TLD1433 or TLDOsH2IP (20-80 μM) for 4 hours at 37° C. Subsequently, a wash with complete medium was performed followed by irradiation with red (625 nm, 90 J cm^−2) or near infrared (808 nm, 600 J cm^−2) light, X-ray (5 Gy, 225 keV), X-ray followed by light or light followed by X-ray. Matched dark controls were used in parallel: incubation at ambient conditions (ambient air, room temperature) for a length of time corresponding to the irradiation session. After irradiation, the cells were returned to the incubator. After 21 hours, the viability of cells was determined by Presto Blue assay, and cell kill was calculated as percent of matched control. Pure PDT effect was calculated in the following way: Pure PDT effect (percent cell kill)=Total PDT percent cell kill−Light alone percent cell kill−Dark percent cell kill.

[1] = In vivo CT imaging of the photosensitizer after tail vein injection; conditions: rat, 1 mg/kg via tail vein, 5 min to 4 hours post administration
Procedure: For in vivo imaging of the photosensitizer, a rat was injected with 1 mg/kg of OsH2dppn via tail vein and imaged with a small animal CT scanner as a function of time post-systemic administration (5, 10, 30 min, 1, 2, 4 hours).

[2] = near infrared light (808 nm, 600 J cm^−2)

Compound	Dark cell kill (%) (U87 cells; no irradiation)	PDT cell kill (%) (U87 cells; Near Infrared & X-ray)	Pure PDT effect (% cell kill, in brackets) (U87 cells; Near Infrared & X-ray) [% cell kill]	Synergy in the pure PDT effect (% cell kill) (U87 cells; Near Infrared & X-ray)	PDT cell kill (%) (U87 cells; X-ray & Near Infrared)	Pure PDT effect (% cell kill, in brackets) (U87 cells; X-ray & Near Infrared) [% cell kill]	Synergy in the pure PDT effect (% cell kill) (U87 cells; X-ray & Near Infrared)	PDT cell kill (%) (U87 cells; X-ray (5 Gy, 225 KeV))	Pure PDT effect (% cell kill, in brackets) (U87 cells; X-ray (5 Gy, 225 KeV)) [% cell kill]	PDT cell kill (%) (U87 cells; [2])	Pure PDT effect (% cell kill, in brackets) (U87 cells; [2]) [% cell kill]	Distribution on CT images over time [1]
[Os+2].c1ccc2nc(-c3ccc4ccccc4n3)ccc2c1.c1ccc2nc(-c3ccc4ccccc4n3)ccc2c1.c1cnc2c(c1)c1nc[nH]c1c1cccnc12 [OsH2IP, [Os(biq)2(LL)] imidazo[4,5-f][1,10]phenanthroline]	5.1	31.5	17.0	−9.3	50.0	39.6	13.4	13.8	6.8	24.6	19.5	–
[Os+2].c1ccc2cc3nc4c5cccnc5c5ncccc5c4nc3cc2c1.c1ccc2nc(-c3ccc4ccccc4n3)ccc2c1.c1ccc2nc(-c3ccc4ccccc4n3)ccc2c1 [OsH2dppn, [Os(biq)2(LL)] benzo[i]dipyrido-[3,2-a:2′,3′-c]phenazine]	–	–	–	–	–	–	–	–	–	–	–	presumably accumulating in the bladder over time
